These results are taken from US8618299B2, “Azinone-substituted azapolycycle MCH-1 antagonists, methods of making, and use thereof” (Albany Molecular Research, Inc., priority 2009, dated 2013).

Structures are written as SMILES. Where a name gives a salt, the structure may show the parent alone.

One data set deals with human MCH-1 receptor (Homo sapiens (Human), UniProt Q99705). The data set can be described thus: Binding assay for human melanin-concentrating hormone (MCH1) receptor. As to conditions: membranes from CHO-K1 cells expressing human MCH1 receptor, 1.4 nM [3H]-labeled radioligand, 60 min at 25° C., pH 7.4, Ki from Cheng Prusoff equation. On the procedure: Binding Assay for Human Melanin-Concentrating Hormone (MCH1) Receptor
human MCH-1 receptor, sequence (Q99705 whole entry): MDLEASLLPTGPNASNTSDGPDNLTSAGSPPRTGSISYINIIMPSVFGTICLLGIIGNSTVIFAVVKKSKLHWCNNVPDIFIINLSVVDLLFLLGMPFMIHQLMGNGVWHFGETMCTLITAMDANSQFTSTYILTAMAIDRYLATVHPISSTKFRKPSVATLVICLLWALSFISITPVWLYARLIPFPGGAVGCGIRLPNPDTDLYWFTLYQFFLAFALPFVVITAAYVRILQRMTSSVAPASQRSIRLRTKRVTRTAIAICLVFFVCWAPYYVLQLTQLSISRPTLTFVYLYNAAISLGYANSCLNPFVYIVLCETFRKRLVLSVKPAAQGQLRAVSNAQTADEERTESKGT
Evaluation of the affinity of compounds for the human MCH-1 receptor was accomplished using 4-(3,4,5-tritritiumbenzyloxy)-1-(1-(2-(pyrrolidin-1-yl)ethyl)-1H-indazol-5-yl)pyridin-2(1H)-one and membranes prepared from stable CHO-K1 cells expressing the human MCH1 receptor obtained from Euroscreen (Batch 1138). Cell membrane homogenates (8.92 μg protein) were incubated for 60 min at 25° C. with 1.4 nM of the [^3H]-labeled compound in the absence or presence of the test compound in 50 mM Tris-HCl buffer, pH 7.4. Nonspecific binding was determined in the presence of 50 μM 1-(5-(4-cyanophenyl)bicyclo[3.1.0]hexan-2-yl)-3-(4-fluoro-3-(trifluoromethyl)phenyl)-1-(3-(4-methylpiperazin-1-yl)propyl)urea. Following incubation, the samples were filtered rapidly under vacuum through Skatron 11731 filters, pre-soaked in 0.5% polyethylenimine, and washed with ice-cold 50 mM Tris-HCl buffer, pH 7.4, (wash setting 9,9,0) using a Skatron cell harvester. The filters were counted for radioactivity in a liquid scintillation counter (Tri-Carb 2100TR, Packard) using a scintillation cocktail (Ultima Gold MV, Perkin Elmer).
The results are expressed as a percent inhibition of the control radioligand specific binding. The IC50 value (concentration causing a half-maximal inhibition of control specific binding) and Hill coefficient (nH) were determined by non-linear regression analysis of the competition curve using Hill equation curve fitting. The inhibition constant (Ki) was calculated from the Cheng Prusoff equation: (Ki=IC50/(1+(L/KD)), where L=concentration of radioligand in the assay, and KD=affinity of the radioligand for the receptor.

Turning to `Cc1ccc(COc2ccn(-c3ccc4c5c(n(C)c4c3)CC3CCCCN3C5)c(=O)c2)cn1` (stereo not shown) (as salt: hydrochloride) [Example 33, 1-(5-Methyl-5,6,6a,7,8,9,10,12-octahydroindolo[2,3-b]quinolizin-3-yl)-4-((6-methylpyridin-3-yl)methoxy)pyridin-2(1H)-one Dihydrochloride], the melting point – broadly, the temperature of the solid-liquid transition – lay in the range of 270 to 272 °C.

Compound `Cc1ccc(-c2ccn(-c3ccc4c5c(n(C)c4c3)CC3CCCCN3C5)c(=O)c2)cn1` (stereo not shown) (as salt: hydrochloride) [Example 35, 1-(5-Methyl-5,6,6a,7,8,9,10,12-octahydroindolo[2,3-b]quinolizin-3-yl)-4-(6-methylpyridin-3-yl)pyridin-2(1H)-one Dihydrochloride] gave a melting point of 256 to 260 °C.

Consider `Cn1c2c(c3ccc(-n4ccc(OCc5ccc(F)cn5)cc4=O)cc31)CN1CCCCC1C2` (stereo not shown) (as salt: hydrochloride) [Example 37, 4-((5-Fluoropyridin-2-yl)methoxy)-1-(5-methyl-5,6,6a,7,8,9,10,12-octahydroindolo[2,3-b]quinolizin-3-yl)pyridin-2(1H)-one Dihydrochloride], for which the melting point was in the range of 235 to 238 °C. On the same count and under the same terms, the result for `Cn1c2c(c3ccc(-n4ccc(OCc5ccc(F)cn5)cc4=O)cc31)CCN1CCCC21` (stereo not shown) (as salt: hydrochloride) [Example 43, 4-((5-Fluoropyridin-2-yl)methoxy)-1-(11-methyl-2,3,5,6,11,11b-hexahydro-1H-indolizino[8,7-b]indol-9-yl)pyridin-2(1H)-one Dihydrochloride] reads 290 to 293 °C. In turn, `Cl.Cn1c2c(c3ccc(-n4ccc(OCc5ccccc5)cc4=O)cc31)CCN1CCCC21` (single isomer, unassigned; (+)) [Example 4, (+)4-(Benzyloxy)-1-(11-methyl-2,3,5,6,11,11b-hexahydro-1H-indolizino[8,7-b]indol-9-yl)pyridin-2(1H)-one Hydrochloride] returned a melting point of 227 to 230 °C. Also, the Ki (in general, a measure of affinity in units of concentration, obtained from inhibition or displacement) on human MCH-1 receptor (Hydrochloride) came out at 12.3 nM. The like results for `Cl.Cn1c2c(c3ccc(-n4ccc(OCc5ccccc5)cc4=O)cc31)CCN1CCCC21` (single isomer, unassigned; (-)) [Example 3, (−)4-(Benzyloxy)-1-(11-methyl-2,3,5,6,11,11b-hexahydro-1H-indolizino[8,7-b]indol-9-yl)pyridin-2(1H)-one Hydrochloride] were, in that order, 224 to 228 °C and 17.3 nM. Regarding `Cl.Cn1c2c(c3ccc(-n4ccc(OCc5ccc(F)cn5)cc4=O)cc31)CN1CCCCC1C2` (single isomer, unassigned; (-)) [Example 38, (−)-4-((5-Fluoropyridin-2-yl)methoxy)-1-(5-methyl-5,6,6a,7,8,9,10,12-octahydroindolo[2,3-b]quinolizin-3-yl)pyridin-2(1H)-one Hydrochloride], the melting point is 270 to 280 °C. The Ki on human MCH-1 receptor (Hydrochloride) came to 19 nM. `Cl.Cn1c2c(c3ccc(-n4ccc(OCc5ccccc5)cc4=O)cc31)CCN1CCCC21` (stereo not shown) [Example 2, 4-(Benzyloxy)-1-(11-methyl-2,3,5,6,11,11b-hexahydro-1H-indolizino[8,7-b]indol-9-yl)pyridin-2(1H)-one Hydrochloride] registered a melting point of 167 to 170 °C. Further, at human MCH-1 receptor (Hydrochloride), the Ki is 14.9 nM. On to `Cl.Cn1c2c(c3ccc(-n4ccc(OCc5ccccc5)cc4=O)cc31)CCN1CCCCC21` (stereo not shown) [Example 5, 4-(Benzyloxy)-1-(12-methyl-1,2,3,4,6,7,12,12b-octahydroindolo[2,3-a]quinolizin-10-yl)pyridin-2(1H)-one Hydrochloride], for which the melting point was 210 to 213 °C. Further, the Ki at human MCH-1 receptor turned out to be 31 nM.

Compound `Cl.Cn1c2c(c3ccc(-n4ccc(-c5ccc(C(F)(F)F)cn5)cc4=O)cc31)CCN1CCCCC21` (stereo not shown) [Example 6, 1-(12-Methyl-1,2,3,4,6,7,12,12b-octahydroindolo[2,3-a]quinolizin-10-yl)-4-(5-(trifluoromethyl)pyridin-2-yl)pyridin-2(1H)-one Hydrochloride] returned a melting point of 280 to 284 °C. The affinity on human MCH-1 receptor corresponds to a Ki of 481 nM. The like results for `Cl.Cn1c2c(c3ccc(-n4ccc(OCc5ccc(F)cn5)cc4=O)cc31)CCN1CCCCC21` (stereo not shown) [Example 7, 4-((5-Fluoropyridin-2-yl)methoxy)-1-(12-methyl-1,2,3,4,6,7,12,12b-octahydroindolo[2,3-a]quinolizin-10-yl)pyridin-2(1H)-one Hydrochloride] were, in that order, 200 °C (dec.) and 45 nM. The like results for `Cl.Cn1c2c(c3ccc(-n4ccc(OCc5ccc(Cl)cn5)cc4=O)cc31)CCN1CCCCC21` (stereo not shown) [Example 8, 4-((5-Chloropyridin-2-yl)methoxy)-1-(12-methyl-1,2,3,4,6,7,12,12b-octahydroindolo[2,3-a]quinolizin-10-yl)pyridin-2(1H)-one Hydrochloride] were, in that order, 204 to 208 °C and 20 nM. `Cl.Cn1c2c(c3ccc(-n4ccc(-c5ccc(Cl)cn5)cc4=O)cc31)CCN1CCCCC21` (stereo not shown) [Example 9, 4-(5-Chloropyridin-2-yl)-1-(12-methyl-1,2,3,4,6,7,12,12b-octahydroindolo[2,3-a]quinolizin-10-yl)pyridin-2(1H)-one Hydrochloride] displayed a melting point of 210 to 213 °C. Also, the affinity on human MCH-1 receptor corresponds to a Ki of 1750 nM. `Cl.Cn1c2c(c3ccc(-n4ccc(OCc5ccccc5)cc4=O)cc31)CN1CCCC1C2` (stereo not shown) [Example 11, 4-(Benzyloxy)-1-(10-methyl-2,3,5,10,11,11a-hexahydro-1H-indolizino[7,6-b]indol-8-yl)pyridin-2(1H)-one Hydrochloride] registered a melting point of 255 to 258 °C. In addition, the affinity at human MCH-1 receptor corresponds to a Ki of 8.1 nM. The like results for `Cl.Cn1c2c(c3ccc(-n4ccc(-c5ccc(C(F)(F)F)nc5)cc4=O)cc31)C1CCCN1CC2` (stereo not shown) [Example 14, 1-(7-Methyl-2,3,5,6,7,11c-hexahydro-1H-indolizino[7,8-b]indol-9-yl)-4-(6-(trifluoromethyl)pyridin-3-yl)pyridin-2(1H)-one Hydrochloride] were, in that order, 235 to 240 °C and 153 nM.

`Cl.O=c1cc(OCc2ccccc2)ccn1-c1ccc2c3c([nH]c2c1)CC1CCCN1C3` (stereo not shown) [Example 16, 4-(Benzyloxy)-1-(2,3,5,10,11,11a-hexahydro-1H-indolizino[7,6-b]indol-8-yl)pyridin-2(1H)-one Hydrochloride] showed a melting point of 270 to 273 °C. The Ki at human MCH-1 receptor was 7 nM. Taken in the same sequence, the figures for `Cl.Cn1c2c(c3ccc(-n4ccc(OCc5ccccc5)cc4=O)cc31)C1CCCN1CC2` (stereo not shown) [Example 17, 4-(Benzyloxy)-1-(7-methyl-2,3,5,6,7,11c-hexahydro-1H-indolizino[7,8-b]indol-9-yl)pyridin-2(1H)-one Hydrochloride] were 260 to 264 °C and 12 nM.

Compound `Cl.Cn1c2c(c3ccc(-n4ccc(OCc5ccc(C(F)(F)F)nc5)cc4=O)cc31)C1CCCN1CC2` (stereo not shown) [Example 18, 1-(7-Methyl-2,3,5,6,7,11c-hexahydro-1H-indolizino[7,8-b]indol-9-yl)-4-((6-(trifluoromethyl)pyridin-3-yl)methoxy)pyridin-2(1H)-one Hydrochloride] showed a melting point of 250 to 254 °C. Also, the Ki on human MCH-1 receptor was determined as 12 nM. On to `Cl.Cn1c2c(c3ccc(-n4ccc(OCc5ccccc5)cc4=O)cc31)C1CCCCN1CC2` (stereo not shown) [Example 22, 4-(Benzyloxy)-1-(8-methyl-1,2,3,4,6,7,8,12c-octahydroindolo[3,2-a]quinolizin-10-yl)pyridin-2(1H)-one Hydrochloride], for which the melting point lay within 250 to 253 °C. This compound also came in with a Ki at human MCH-1 receptor of 21 nM. The like results for `Cl.O=c1cc(-c2ccc(C(F)(F)F)cc2)ccn1-c1ccc2c3c([nH]c2c1)CCN1CCCC31` (stereo not shown) [Example 26, 1-(2,3,5,6,7,11c-Hexahydro-1H-indolizino[7,8-b]indol-9-yl)-4-(4-(trifluoromethyl)phenyl)pyridin-2(1H)-one Hydrochloride] were, in that order, 280 to 290 °C and 12 nM. In the case of `Cl.O=c1cc(-c2ccc(C(F)(F)F)nc2)ccn1-c1ccc2c3c([nH]c2c1)CCN1CCCC31` (stereo not shown) [Example 27, 1-(2,3,5,6,7,11c-Hexahydro-1H-indolizino[7,8-b]indol-9-yl)-4-(6-(trifluoromethyl)pyridin-3-yl)pyridin-2(1H)-one Hydrochloride], the melting point fell in the range of 205 to 215 °C. Besides, affinity at human MCH-1 receptor was put at a Ki of 34 nM. Taken in the same sequence, the figures for `Cl.O=c1cc(OCc2ccc(F)cc2F)ccn1-c1ccc2c3c([nH]c2c1)CCN1CCCC31` (stereo not shown) [Example 28, 4-(2,4-difluorobenzyloxy)-1-(2,3,5,6,7,11c-hexahydro-1H-indolizino[7,8-b]indol-9-yl)pyridin-2(1H)-one Hydrochloride] were 210 to 220 °C and 12 nM.
